Reference: patent US20090318385A1, “Pyrazolopyride derivative and phosphodiesterase ( pde) inhibitors containing the same as active ingredient” (priority 2006, published 2009)

Key:
PDE4B catalytic domain = target: T1, PDE4B catalytic domain (Homo sapiens, UniProt Q07343); assay: Phosphodiesterase inhibitory activity (recombinant PDE4Bcat, [3H]cAMP); assay type: biochemical; settings: 30° C. for 20 minutes, read-out: IC50 (μmol/L) PDE4
T1 construct: The cDNA of PDE4B catalytic domain (hereinafter abbreviated as Cat) was isolated from human RNA by RT-PCR; made in house; host or cells: Sf9 insect cells (baculovirus, Bac-to-Bac)
Description: The cDNA of PDE4B catalytic domain (hereinafter abbreviated as Cat) was isolated from human RNA by RT-PCR. The isolated cDNA fragments were inserted into Sf9 insect cells using Gateway system (product of Invitrogen Corporation) and Bac-to-Bac (registered trademark) Baculovirus Expression system (product of Invitrogen Corporation) to express a target PDE protein. The recombinant PDE4Bcat was purified from the culture supernatants or cell extracts of Sf9 cells expressing high levels of the PDE protein by ion exchange chromatography and was used for the following experiments.
A 4 mmol/L solution of each test compound was serially diluted four-fold with a 15% DMSO solution to prepare solutions with concentrations of 15 nmol/L to 4 mmol/L (the final concentrations used in the experiments were 1.5 nmol/L to 400 μmol/L). 10 μL of the prepared test compound solutions, [^3H] cAMP diluted with a buffer solution (40 mmol/L Tris-HCl (pH: 7.4), 10 mmol/L MgCl2), and 40 μL of the recombinant human PDE protein (2×10^−6 units, 1 unit is defined as the amount of PDE that breaks down 1 μmol/L of cAMP in one minute under the conditions of a pH of 7.5 and 30° C.) were added to a 96-well plate. The mixtures were reacted at 30° C. for 20 minutes. Then, the resultant mixtures were reacted at 65° C. for 2 minutes. Subsequently, […] of 1 mg/mL 5′-nucleotidase (Crotalusatrox venom, product of Sigma) was added to the mixtures, and the mixtures were reacted at 30° C. for 10 minutes. After completion of the reaction, 200 μL of a solution of Dowex (300 mg/mL Dowex 1x8-400 (product of Sigma Aldrich), 33% ethanol) was added to the mixtures, and the mixtures were shaken at 4° C. for 20 minutes. Subsequently, 200 μL of MicroScint 20 (product of Packard) was added to the mixtures, and measurement was performed using a scintillation counter (Topcount, product of Packard). IC50 values were calculated using Graph Pad Prism v3.03 (product of GraphPad Software). When 1 μmol/L>the IC50 value≧0.1 μmol/L, the results were represented by “+.” When 0.1 μmol/L>the IC50 value, the results were represented by “++.”

[1] = system: histamine-induced bronchoconstriction; assay: Histamine-induced airway contraction reaction in guinea pigs; assay type: in vivo; settings: test compound 1 mg/kg i.v., histamine 12.5 μg/kg i.v., airflow 30 seconds after administration
Experimental: Guinea pigs were anesthetized with pentobarbital (30 mg/kg, i.p.). A cannula for intravenous administration, a cannula for collecting blood and measuring blood pressure, and a tracheal cannula were inserted into the left external jugular vein, right internal carotid artery, and trachea, respectively. The guinea pigs were maintained on artificial respiration under the conditions of 60 times/min and 10 mL/kg/stroke. The airflow from the side branch of the tracheal cannula was measured by a bronchospasm transducer (Ugo-Basile) and recorded on a computer via Power Lab (ADInstruments Japan). The guinea pigs were immobilized with gallamine (10 mg/kg, i.v.), and histamine was administered at 10-minute intervals (12.5 μg/kg, i.v.). After the histamine-induced bronchoconstriction was constant, one of the test compounds (1 mg/kg, i.v.) dissolved in DMSO was administered. We examined the inhibitory action of test compounds on histamine-induced bronchoconstriction 30 seconds after compounds administration. Bronchoconstriction was recorded as the value of airflow, and the results were represented by the ratio of the maximum value of the histamine-induced airflow 30 seconds after the administration to the maximum value of the airflow before the administration. When the inhibition ratio≧90%, the results were represented by “+++.” When 90%>the inhibition ratio≧70%, the results were represented by “++.” When 70%>the inhibition ratio≧30%, the results were represented by “+.”

[2] = system: total number of leukocytes in bronchoalveolar lavage fluid after LPS inhalation; assay: LPS acute inflammation model in rats; assay type: in vivo; settings: Rattus norvegicus, Leukocyte, po, 3 mg/kg orally one hour before LPS inhalation, total leukocytes in BALF 3 hours after LPS inhalation, read-out: Inhibition ratio
Experimental: 3 mg/kg of the compounds were orally administered to rats one hour before inhalation of lipopolysaccharide (LPS) from E. coli serotype 055:B5, rats were inhalted nebulizing LPS solution (50 mL) by nebulizer for 30 minutes. Then, 3 hours after the LPS inhalation, rats were euthanized with 20% urethane (5 ml/rat, i.p.) 5 ml of physiological saline for bronchoalveolar lavage was injected into the bronchoalveolar space through the airway, and the bronchoalveolar space was washed 3 times using a 5 mL syringe. This procedure was repeated twice, and the solution was collected as bronchoalveolar lavage fluid (BALF). The collected BALF was centrifuged at 1,200 rpm and 4° C. for 10 minutes (Hirtachi; himac CR 5 DL). The sediment was re-suspended in 10 mL of a 0.1% bovine serum albumin-physiological saline, and an equivalent amount of Turk's solution was added to the suspension to stain leukocytes. The total number of leukocytes was counted under a microscope to determine the inhibition ratio. When the inhibition ratio≧60%, the results were represented by “++.” When 60%>the inhibition ratio≧30%, the results were represented by “+.”

T1 sequence (Q07343 330-659 limits assumed): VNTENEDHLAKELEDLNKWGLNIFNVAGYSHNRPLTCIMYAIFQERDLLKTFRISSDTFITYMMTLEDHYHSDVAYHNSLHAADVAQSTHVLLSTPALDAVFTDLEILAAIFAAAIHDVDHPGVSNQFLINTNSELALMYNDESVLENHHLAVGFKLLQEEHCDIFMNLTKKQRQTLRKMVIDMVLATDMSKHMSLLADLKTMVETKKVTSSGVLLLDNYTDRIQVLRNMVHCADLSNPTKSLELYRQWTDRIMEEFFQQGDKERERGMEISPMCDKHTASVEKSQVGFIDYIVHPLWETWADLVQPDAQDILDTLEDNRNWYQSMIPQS

IC50 (PDE4B catalytic domain)	SMILES	Inhibition ratio [1]	inhibition in vivo at 3 mg/kg [2]
< 0.1 µmol/L	COc1ccc(C=Cc2ccncc2)c2cc(C(F)(F)F)nn12 [Example 78, 7-Methoxy-4-[(2-pyridin-4-yl)vinyl]-2-trifluoromethylpyrazolo[1,5-a]pyridine]	+ (When 70%>the inhibition ratio≧30%, the results were represented by “+.”)	30 to 60%
< 0.1 µmol/L	COc1ccc(CCc2ccncc2)c2cc(C(F)(F)F)nn12 [Example 79, 7-Methoxy-4-[(2-pyridin-4-yl)ethyl]-2-trifluoromethylpyrazolo[1,5-a]pyridine]	+ (When 70%>the inhibition ratio≧30%, the results were represented by “+.”)	≥ 60%
< 0.1 µmol/L	COc1ccc(C(=O)Cc2c(Cl)cncc2Cl)c2cc(C(F)(F)F)nn12 [Example 88, 2-(3,5-Dichloropyridin-4-yl)-1-(7-methoxy-2-trifluoromethylpyrazolo[1,5-a]pyridin-4-yl)ethanone]	++ (When 90%>the inhibition ratio≧70%, the results were represented by “++.”)	≥ 60%
< 0.1 µmol/L	COc1ccc(/C=C/c2c(Cl)cncc2Cl)c2cc(C(F)(F)F)nn12 [Example 89, (E)-4-[2-(3,5-dichloropyridin-4-yl)vinyl]-7-methoxy-2-trifluoromethylpyrazolo[1,5-a]pyridine]	+ (When 70%>the inhibition ratio≧30%, the results were represented by “+.”)	30 to 60%
